Target: adrenergic β1 receptor (Homo sapiens, UniProt P08588)
Experiment: Ligand binding assay on adrenergic β1 receptor arrays printed on microcolumns
Settings: 5 nM labeled ligand, microcolumn #1, about one hour incubation
Method: These glass microcolumns were coated with a thin gold layer and functionalized with GAPS. […] To assay ligand binding, the microcolumns were inserted into the wells of an 1×8-Stripwell plate (Corning®) containing a fluorescently-labeled β1 receptor ligand (bodipy-TMR CGP12177) (5 nM) in a ligand binding buffer (50 mM Tris-HCl, 2 mM EDTA, 1 mM MgCl2, pH 7.4, 0.1% BSA). […] Following incubation of about one hour, the microcolumns were removed, washed, and scanned to assess ligand binding on the array.

adrenergic β1 receptor, sequence (P08588 whole entry): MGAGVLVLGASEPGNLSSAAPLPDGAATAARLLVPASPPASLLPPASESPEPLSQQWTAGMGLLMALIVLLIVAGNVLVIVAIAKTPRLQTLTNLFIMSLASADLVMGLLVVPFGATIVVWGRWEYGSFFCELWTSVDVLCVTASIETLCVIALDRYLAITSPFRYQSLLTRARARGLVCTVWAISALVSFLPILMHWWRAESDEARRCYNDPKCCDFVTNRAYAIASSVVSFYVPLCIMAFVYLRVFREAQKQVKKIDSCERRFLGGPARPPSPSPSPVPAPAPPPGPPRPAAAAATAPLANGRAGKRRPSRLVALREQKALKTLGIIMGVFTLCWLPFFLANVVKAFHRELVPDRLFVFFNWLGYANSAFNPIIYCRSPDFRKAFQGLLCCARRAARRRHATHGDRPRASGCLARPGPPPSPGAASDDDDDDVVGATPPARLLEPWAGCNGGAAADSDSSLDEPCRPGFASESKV

- Binding of fluorescently-labeled ligand to the β1 receptor array (fluorescent signal): high fluorescent signal
Substance: bodipy-TMR CGP12177
